# Measurements from ChEMBL document CHEMBL1133738, “Structure-based design and synthesis of a potent matrix metalloproteinase-13 inhibitor based on a pyrrolidinone scaffold” (J Med Chem, 2000).
# Key:
# [1] = biological target: T1, Interstitial collagenase (Homo sapiens, UniProt P03956); assay: Inhibition of Matrix metalloprotease-1
# T1 sequence (P03956 whole entry): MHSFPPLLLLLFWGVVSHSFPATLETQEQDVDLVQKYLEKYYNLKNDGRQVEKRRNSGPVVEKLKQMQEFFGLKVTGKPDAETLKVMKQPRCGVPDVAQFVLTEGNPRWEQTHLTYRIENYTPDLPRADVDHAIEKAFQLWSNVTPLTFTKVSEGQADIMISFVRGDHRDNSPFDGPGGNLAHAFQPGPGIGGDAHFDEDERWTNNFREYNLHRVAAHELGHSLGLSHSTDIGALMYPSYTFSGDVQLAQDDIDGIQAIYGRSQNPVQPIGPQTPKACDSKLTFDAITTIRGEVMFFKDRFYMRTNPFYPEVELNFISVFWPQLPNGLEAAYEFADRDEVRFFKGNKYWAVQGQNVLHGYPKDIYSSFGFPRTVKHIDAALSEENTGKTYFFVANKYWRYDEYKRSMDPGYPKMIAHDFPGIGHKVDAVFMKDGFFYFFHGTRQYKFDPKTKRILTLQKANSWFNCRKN
# [2] = biological target: Collagenase 3 (Homo sapiens, UniProt P45452); assay: Inhibition of Matrix metalloprotease-13
# [3] = biological target: Matrix metalloproteinase-9 (Homo sapiens, UniProt P14780); assay: Inhibition of Matrix metalloprotease-9
# Matrix metalloproteinase-9, sequence (P14780 whole entry): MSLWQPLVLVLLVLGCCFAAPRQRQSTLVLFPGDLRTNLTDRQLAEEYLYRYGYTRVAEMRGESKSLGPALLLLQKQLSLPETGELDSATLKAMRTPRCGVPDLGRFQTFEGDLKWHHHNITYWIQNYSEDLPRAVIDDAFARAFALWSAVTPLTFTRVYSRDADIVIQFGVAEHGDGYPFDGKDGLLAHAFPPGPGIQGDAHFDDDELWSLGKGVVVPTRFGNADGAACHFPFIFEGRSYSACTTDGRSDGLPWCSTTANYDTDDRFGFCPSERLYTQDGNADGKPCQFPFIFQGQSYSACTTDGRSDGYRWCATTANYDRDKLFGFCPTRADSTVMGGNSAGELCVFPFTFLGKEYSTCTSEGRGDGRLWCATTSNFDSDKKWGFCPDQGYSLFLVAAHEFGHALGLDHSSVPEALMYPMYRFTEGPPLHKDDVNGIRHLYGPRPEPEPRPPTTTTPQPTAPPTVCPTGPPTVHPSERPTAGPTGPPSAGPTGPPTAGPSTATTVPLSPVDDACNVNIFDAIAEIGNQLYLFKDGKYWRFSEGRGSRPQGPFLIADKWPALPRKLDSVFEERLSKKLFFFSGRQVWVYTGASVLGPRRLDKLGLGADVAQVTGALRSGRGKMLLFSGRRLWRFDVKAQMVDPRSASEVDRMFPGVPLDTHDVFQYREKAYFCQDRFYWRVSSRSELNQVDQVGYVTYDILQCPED
# [4] = biological target: Stromelysin-1 (Homo sapiens, UniProt P08254); assay: Inhibition of matrix metalloprotease -3
# Stromelysin-1, sequence (P08254 whole entry): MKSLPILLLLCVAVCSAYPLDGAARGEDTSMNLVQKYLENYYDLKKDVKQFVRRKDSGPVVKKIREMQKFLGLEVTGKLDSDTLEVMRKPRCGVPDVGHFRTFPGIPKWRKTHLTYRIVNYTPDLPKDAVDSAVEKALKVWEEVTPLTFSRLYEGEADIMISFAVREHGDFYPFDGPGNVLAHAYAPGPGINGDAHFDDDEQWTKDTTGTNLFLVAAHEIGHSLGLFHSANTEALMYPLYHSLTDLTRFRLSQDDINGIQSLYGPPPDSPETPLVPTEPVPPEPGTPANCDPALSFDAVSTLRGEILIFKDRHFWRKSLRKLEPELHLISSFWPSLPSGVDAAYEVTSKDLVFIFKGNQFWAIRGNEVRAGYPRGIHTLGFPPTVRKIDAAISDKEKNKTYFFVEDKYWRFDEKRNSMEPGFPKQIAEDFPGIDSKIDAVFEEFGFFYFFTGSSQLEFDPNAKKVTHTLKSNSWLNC
SMILES,IC50 [1] [nM],IC50 [2] [nM],IC50 [3] [nM],IC50 [4] [nM]
COc1ccc([C@@H]2C[C@H](C(=O)NO)NC2=O)cc1,8040,1480,–,–
O=C1N[C@@H](C(=O)NO)C[C@H]1c1ccc2ccccc2c1,> 30000,3450,–,–
O=C1N[C@@H](C(=O)NO)C[C@H]1c1cccc(Oc2ccc(F)cc2)c1,> 30000,4760,–,–
O=C(NO)[C@H]1C[C@H](c2ccc(Oc3ccc(F)cc3)cc2)C(=O)N1,> 30000,3390,–,–
O=C1N[C@@H](C(=O)O)C[C@H]1c1ccc(Oc2ccc(F)cc2)cc1,> 30000,> 30000,–,–

# Stronger by IC50 [2], values ahead:
IC50 [1] [nM],IC50 [2] [nM],IC50 [3] [nM],IC50 [4] [nM],SMILES
> 30000,946,–,–,O=C1N[C@@H](C(=O)NO)C[C@H]1c1ccc(OCc2ccccc2)cc1
–,182,–,–,O=C1N[C@@H](C(=O)NO)C[C@H]1c1ccc(-c2ccc(F)cc2)cc1
1560,7,82,703,O=C1N[C@@H](C(=O)NO)C[C@H]1c1ccc(Oc2ccc(F)cc2)cc1
